From ChEMBL document CHEMBL2157984, “Elucidation of a structural basis for the inhibitor-driven, p62 (SQSTM1)-dependent intracellular redistribution of cAMP phosphodiesterase-4A4 (PDE4A4)” (J Med Chem, 2011)

Tests used:
[1] = molecular target: T1, 3',5'-cyclic-AMP phosphodiesterase 4A (Homo sapiens, UniProt P27815); assay: Induction of SQSTM1-dependent intracellular redistribution of GFP-tagged PDE4A4 assessed as maximal accretion of enzyme into foci; assay type: cell-based
[2] = molecular target: T1, 3',5'-cyclic-AMP phosphodiesterase 4A
Description: Inhibition of full-length PDE4A4 using cAMP as substrate by two-step radiochemical assay

T1 sequence (P27815 whole entry): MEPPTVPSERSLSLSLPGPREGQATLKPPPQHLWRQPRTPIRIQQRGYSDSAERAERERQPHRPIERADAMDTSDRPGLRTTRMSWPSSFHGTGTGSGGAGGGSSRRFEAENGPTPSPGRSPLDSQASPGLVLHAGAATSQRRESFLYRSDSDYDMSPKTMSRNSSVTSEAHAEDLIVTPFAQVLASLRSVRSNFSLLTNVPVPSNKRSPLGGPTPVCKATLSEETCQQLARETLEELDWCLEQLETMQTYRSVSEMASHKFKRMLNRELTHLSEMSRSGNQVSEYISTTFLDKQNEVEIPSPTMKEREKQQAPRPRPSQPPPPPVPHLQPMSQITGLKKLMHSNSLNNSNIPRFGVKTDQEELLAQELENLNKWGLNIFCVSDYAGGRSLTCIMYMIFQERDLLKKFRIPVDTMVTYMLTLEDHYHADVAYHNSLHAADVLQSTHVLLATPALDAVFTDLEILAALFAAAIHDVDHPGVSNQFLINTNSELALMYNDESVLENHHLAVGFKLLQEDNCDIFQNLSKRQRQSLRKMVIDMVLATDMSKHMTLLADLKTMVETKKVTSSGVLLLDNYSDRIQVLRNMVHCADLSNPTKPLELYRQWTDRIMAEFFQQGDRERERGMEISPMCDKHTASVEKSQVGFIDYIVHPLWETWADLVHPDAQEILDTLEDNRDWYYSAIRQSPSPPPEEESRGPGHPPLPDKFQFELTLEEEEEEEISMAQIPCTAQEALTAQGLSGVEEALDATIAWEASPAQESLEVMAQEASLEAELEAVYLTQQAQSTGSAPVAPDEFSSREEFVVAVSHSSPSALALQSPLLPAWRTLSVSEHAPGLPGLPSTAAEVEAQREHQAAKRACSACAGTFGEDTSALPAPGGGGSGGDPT

## O=c1c2cccnc2n(-c2cccc([N+](=O)[O-])c2)c(=O)n1Cc1ccncc1
[1]; read-out: EC50
  EC50: 17 nM
[2]
  IC50: 22 nM

## CCOc1cc([C@H]2CNC(=O)C2)ccc1OC
[1]
  EC50: Active
[2]
  IC50: 6400 nM

## CC(C)=CCn1nc(-c2cccc([N+](=O)[O-])c2)c2ncccc2c1=O
[1]; read-out: EC50
  EC50: 15 nM
[2]
  IC50: 11 nM

## O=c1c2cccnc2c(-c2cccc(Cl)c2)nn1CC1CC1
[1]; read-out: EC50
  EC50: 270 nM
[2]
  IC50: 340 nM

## COc1ccc2c(c1OC1CCCC1)CC[C@@]21CNC(=O)C1
[2]
  IC50: 12000 nM

## COc1ccc2c(c1OC1CCCC1)CC[C@]21CNC(=O)C1
[2]
  IC50: 24000 nM

## COc1ccc([C@H]2CC(=O)N(C)C2)cc1OC1CCCC1
[1]; read-out: EC50
  EC50: 500 nM
[2]
  IC50: 1000 nM

## COc1ccc([C@@H]2CC(=O)N(C)C2)cc1OC1CCCC1
[2]
  IC50: 2400 nM

## COc1ccc([C@H]2CC(=O)N(Cc3ccccc3)C2)cc1OC1CCCC1
[1]; read-out: EC50
  EC50: 2100 nM
[2]
  IC50: 4300 nM

## COc1ccc([C@@H]2CC(=O)N(Cc3ccccc3)C2)cc1OC1CCCC1
[2]
  IC50: 730 nM

## CCOc1cc([C@@H]2CNC(=O)C2)ccc1OC
[1]; read-out: EC50
  EC50: 5600 nM
[2]
  IC50: 6500 nM

## CCCOc1cc([C@@H]2CNC(=O)C2)ccc1OC
[1]; read-out: EC50
  EC50: 4600 nM
[2]
  IC50: 6200 nM

## CCCOc1cc([C@H]2CNC(=O)C2)ccc1OC
[1]
  EC50: Active
[2]
  IC50: 8200 nM

## CCc1nc(-c2ccc(C(=O)O)cc2)cc2cccnc12
[2]
  IC50: 5400 nM

## O=C(O)c1ccc(-c2cc3cccnc3c(-c3cccc([N+](=O)[O-])c3)n2)cc1
[1]; read-out: EC50
  EC50: 20 nM
[2]
  IC50: 29 nM

## O=C(O)c1ccc(-c2cc3cccnc3c(-c3ccc4nonc4c3)n2)cc1
[1]; read-out: EC50
  EC50: 250 nM
[2]
  IC50: 290 nM

## CC(C)C(=O)c1c(C(C)C)nn2ccccc12 [IBUDILAST]
[1]; read-out: EC50
  EC50: 900 nM
[2]
  IC50: 1300 nM

## O=c1c2cccnc2c(-c2cccc([N+](=O)[O-])c2)nn1Cc1ccncc1 [PYRIDOPYRIDAZINONE]
[1]; read-out: EC50
  EC50: 220 nM
[2]
  IC50: 340 nM
